Reference: US11331364B2, “Use for JNK inhibitor molecules for treatment of various diseases” (Xigen Inflammation Ltd., priority 2014, dated 2022)
Like-named read-outs stand apart in the source and are kept apart here. Square brackets hold non-standard residues; d marks the D form. Peptide text beside a SMILES is read from it.

Tests used:
hJNK2 = hJNK2 (Homo sapiens, UniProt P45984); assay: hJNK2 | IC50
From the text: (§1) Table printed on a drawing sheet, Fig. 4
Head of the field: hJNK2 | IC50
(§2) The patent's description of the figure: FIG. 4: Table illustrating the inhibitory efficacy of several JNK inhibitors according to the present invention, which are fusion proteins of a JNK inhibitory (poly-)peptide sequence and a transporter sequence. Given are the IC50 values in the nM range, the respective standard error of the mean (SEM) and the number of experiments performed (n).
(§3) First copying reader's note: The sheet prints no unit for IC50 (the description says nM range); decimal commas are used, except for three IC50 cells printed with a point (3820.81, 5340.33, 8130.86).
Where the first naming reader finds the target: head: hJNK2 | IC50

hJNK3 = hJNK3 (Homo sapiens, UniProt P53779); assay: hJNK3 | IC50
From the text: as §1
Head of the field: hJNK3 | IC50
as §2, §3
Where the first naming reader finds the target: head: hJNK3 | IC50

hJNK1 = biological target: T1, hJNK1 (Homo sapiens, UniProt P45983); assay: hJNK1 | IC50
T1 construct: His; purchased Upstate 14-327
From the text: as §1
Head of the field: hJNK1 | IC50
as §2, §3
Where the first naming reader finds the target: head: hJNK1 | IC50

hJNK3, sequence (P53779 whole entry, looked up): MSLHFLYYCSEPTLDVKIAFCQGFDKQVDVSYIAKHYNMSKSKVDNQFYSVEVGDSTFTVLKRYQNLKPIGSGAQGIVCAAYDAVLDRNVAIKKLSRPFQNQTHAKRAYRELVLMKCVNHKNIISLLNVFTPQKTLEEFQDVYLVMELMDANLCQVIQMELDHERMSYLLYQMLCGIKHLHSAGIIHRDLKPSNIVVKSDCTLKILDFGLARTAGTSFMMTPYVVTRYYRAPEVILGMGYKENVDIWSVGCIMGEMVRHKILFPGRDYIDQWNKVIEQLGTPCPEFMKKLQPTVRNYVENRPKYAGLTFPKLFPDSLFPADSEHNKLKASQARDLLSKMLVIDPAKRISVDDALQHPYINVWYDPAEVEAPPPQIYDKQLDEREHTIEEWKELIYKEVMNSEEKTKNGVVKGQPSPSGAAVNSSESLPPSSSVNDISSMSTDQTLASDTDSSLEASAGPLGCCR
hJNK2, sequence (P45984 whole entry, looked up): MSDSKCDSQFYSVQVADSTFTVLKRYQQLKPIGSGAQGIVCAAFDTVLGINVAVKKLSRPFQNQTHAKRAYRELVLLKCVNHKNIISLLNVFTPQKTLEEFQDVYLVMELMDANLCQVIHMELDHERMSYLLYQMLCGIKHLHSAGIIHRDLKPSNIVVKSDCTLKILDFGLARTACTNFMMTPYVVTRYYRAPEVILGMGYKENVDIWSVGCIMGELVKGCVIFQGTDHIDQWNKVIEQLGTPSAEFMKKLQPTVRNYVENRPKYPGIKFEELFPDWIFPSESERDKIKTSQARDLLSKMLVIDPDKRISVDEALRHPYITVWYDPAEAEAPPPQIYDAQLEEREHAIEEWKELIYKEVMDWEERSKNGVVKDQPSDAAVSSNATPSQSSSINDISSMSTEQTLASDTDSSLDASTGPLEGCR
T1 sequence (P45983 whole entry, looked up): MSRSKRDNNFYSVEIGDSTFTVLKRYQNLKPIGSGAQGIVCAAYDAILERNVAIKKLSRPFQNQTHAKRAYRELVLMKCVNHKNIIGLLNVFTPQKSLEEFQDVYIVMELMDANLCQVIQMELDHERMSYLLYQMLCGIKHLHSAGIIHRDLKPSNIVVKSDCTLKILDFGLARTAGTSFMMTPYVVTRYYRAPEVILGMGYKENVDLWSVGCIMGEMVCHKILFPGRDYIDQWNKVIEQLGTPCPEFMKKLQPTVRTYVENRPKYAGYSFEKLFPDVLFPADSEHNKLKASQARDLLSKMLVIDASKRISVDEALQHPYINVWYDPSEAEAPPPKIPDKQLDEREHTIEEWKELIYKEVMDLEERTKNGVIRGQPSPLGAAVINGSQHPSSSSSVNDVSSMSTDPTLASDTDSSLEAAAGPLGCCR

IC50 (hJNK2; read-out: hJNK2 | IC50)	IC50 (hJNK3; read-out: hJNK3 | IC50)	IC50 (hJNK1; read-out: hJNK1 | IC50)	Structure (SMILES)	IC50 (hJNK2)	IC50 (hJNK3)	IC50 (hJNK1)
			CC(C)C[C@H](NC(=O)[C@H](CC(N)=O)NC(=O)[C@H](CC(C)C)NC(=O)[C@@H](NC(=O)[C@@H](NC(=O)[C@@H]1CCCN1C(=O)[C@H](CCCNC(=N)N)NC(=O)[C@H](CCCNC(=N)N)NC(=O)[C@H](CCCNC(=N)N)NC(=O)[C@H](CCC(N)=O)NC(=O)[C@H](CCCNC(=N)N)NC(=O)[C@H](CCCNC(=N)N)NC(=O)[C@H](CCCCN)NC(=O)[C@H](CCCCN)NC(=O)[C@H](CCCNC(=N)N)NC(=O)CN)[C@@H](C)O)[C@@H](C)O)C(=O)N[C@@H](Cc1ccccc1)C(=O)N1CCC[C@H]1C(=O)N[C@@H](CCC(N)=O)C(=O)N[C@H](C(=O)N1CCC[C@H]1C(=O)N[C@@H](CCCNC(=N)N)C(=O)N[C@@H](CO)C(=O)N[C@@H](CCC(N)=O)C(=O)N[C@@H](CC(=O)O)C(N)=O)C(C)C [SEQ ID NO: 195] (H-GRKKRRQRRRPTTLNLFPQVPRSQD-NH2)	11.3 nM	4.92 nM	10.8 nM
			CC(C)C[C@H](NC(=O)[C@H](CC(N)=O)NC(=O)[C@H](CC(C)C)NC(=O)[C@@H](NC(=O)[C@@H](NC(=O)[C@@H]1CCCN1C(=O)[C@H](CCCNC(=N)N)NC(=O)[C@H](CCCCN)NC(=O)[C@@H]1CCCN1C(=O)[C@H](CCCNC(=N)N)NC(=O)[C@@H]1CCCN1C(=O)[C@@H]1CCCN1C(=O)[C@H](CCCNC(=N)N)NC(=O)[C@H](CCCNC(=N)N)NC(=O)[C@H](CCCNC(=N)N)NC(=O)[C@H](CCC(N)=O)NC(=O)[C@H](CCCNC(=N)N)NC(=O)[C@H](CCCNC(=N)N)NC(=O)[C@H](CCCCN)NC(=O)[C@H](CCCCN)NC(=O)[C@H](CCCNC(=N)N)NC(=O)CN)[C@@H](C)O)[C@@H](C)O)C(=O)N[C@@H](Cc1ccccc1)C(=O)N1CCC[C@H]1C(=O)N[C@@H](CCC(N)=O)C(=O)N[C@H](C(=O)N1CCC[C@H]1C(=O)N[C@@H](CCCNC(=N)N)C(=O)N[C@@H](CO)C(=O)N[C@@H](CCC(N)=O)C(=O)N[C@@H](CC(=O)O)C(N)=O)C(C)C [SEQ ID NO: 196] (H-GRKKRRQRRRPPRPKRPTTLNLFPQVPRSQD-NH2)	8.43 nM	5.22 nM	42.2 nM
802 nM	1290 nM	24400 nM	CC(C)C[C@@H](NC(=O)[C@@H](Cc1ccccc1)NC(=O)[C@H]1CCCN1C(=O)[C@@H](CCC(N)=O)NC(=O)[C@H](NC(=O)[C@H]1CCCN1C(=O)[C@@H](CCCNC(=N)N)NC(=O)[C@@H](CO)NC(=O)[C@@H](CCC(N)=O)NC(=O)[C@H](N)CC(=O)O)C(C)C)C(=O)N[C@H](CC(N)=O)C(=O)N[C@H](CC(C)C)C(=O)N[C@@H](C(=O)N[C@@H](C(=O)N1CCC[C@@H]1C(=O)N[C@H](CCCNC(=N)N)C(=O)N[C@H](CCCCN)C(=O)N1CCC[C@@H]1C(=O)N[C@H](CCCNC(=N)N)C(=O)N1CCC[C@@H]1C(=O)N1CCC[C@@H]1C(=O)N[C@H](CCCNC(=N)N)C(=O)N[C@H](CCCNC(=N)N)C(=O)N[C@H](CCCNC(=N)N)C(=O)N[C@H](CCC(N)=O)C(=O)N[C@H](CCCNC(=N)N)C(=O)N[C@H](CCCNC(=N)N)C(=O)N[C@H](CCCCN)C(=O)N[C@H](CCCCN)C(=O)N[C@H](CCCNC(=N)N)C(=O)NCC(N)=O)[C@H](C)O)[C@H](C)O [SEQ ID NO: 197, dqsrpvqpflnlttprkprpprrrqrrkkrg] (H-[dD][dQ][dS][dR][dP][dV][dQ][dP][dF][dL][dN][dL][dT][dT][dP][dR][dK][dP][dR][dP][dP][dR][dR][dR][dQ][dR][dR][dK][dK][dR]G-NH2)			
